PMC10180065, “Mechanistic Studies of Arene–Ruthenium(II) Complexes with Carbothioamidopyrazoles as Alternative Cancer Drugs” (Molecules, 2023)

What was measured:
Colo205 = assay: MTT cytotoxicity, Colo205; format: cell-based, human; settings: 48 h incubation, read-out: Cytotoxic effect, IC50
Description: (§1) Cytotoxicity was evaluated against fifteen adherent human cancer cell lines using the MTT test: colorectal adenocarcinoma cells Caco2 (ATCC® HTB-37™), colorectal adenocarcinoma cells HT29 (ATCC® HTB-38™), colon colorectal carcinoma HCT116 (ATCC® CCL-247™), colon adenocarcinoma COLO205 (ATCC® CCL-222™), colorectal adenocarcinoma SW620 (ATCC® CCL-227™), colorectal adenocarcinoma grade IV LoVo (ATCC® CCL-229™), hepatocellular carcinoma Hep 3b (ATCC® HB-8064™), endometrium adenocarcinoma HEC1A (ATCC® HTB-112™), Ishikawa (99040201; Sigma–Aldrich Sigma, St. Louis, MO, USA), cervical adenocarcinoma cells HeLa (ATCC® CCL-2™), lung epithelial carcinoma A549 (ATCC® CRM-CCL-185™), breast epithelial adenocarcinoma cell positive for estrogen and progesterone receptors MCF7 (ATCC® HTB-22™) and negative for expression of estrogen receptor HCC38 (ATCC® CRL-2314™), acute promyelocytic leukemia HL-60 (ATCC® CCL-240™), skin melanoma WM115 (ATCC® CRL-1676™), and 1 suspension cancer cell line: acute lymphoblastic leukemia NALM6 (purchased from the German Collection of Microorganisms and Cell Cultures). HT29, NALM6, HCC-38 and HL-60 cells were cultured in RPMI 1640 medium (Thermo Fisher Scientific, Waltham, MA, USA) supplemented with 10% fetal bovine serum and antibiotic (gentamicin 25 μg ml^−1) (Gibco, Grand Island, New York, NY, USA). For the remaining tumor cell lines, Dulbecco’s minimal essential medium (DMEM, Lonza, Visp, Switzerland) supplemented with 10% fetal bovine serum and antibiotic instead of RPMI 1640 was used. In addition, Human Microvascular Endothelial Cells (HMEC1), which were obtained from the American Type Culture Collection (Manassas, VA, USA), were used as a model of normal cells. HMEC-1 were cultured in MCDB131 medium (Corning Life Sciences, Corning, NY, USA), supplemented with 10% fetal bovine serum, 10 ng/mL Epidermal Growth Factor (Millipore, Burlington, MA, USA) and 10 mM glutamine (Corning Life Sciences). All cells were grown at 37 °C in humidified atmosphere of 5% CO2 in air. The exponential growth of cells was maintained by regular passaging at 90% confluence three times a week using 0.025% trypsin/EDTA (Gibco, Grand Island, New York, NY, USA).
(§2) The cytotoxicity was tested by a standard MTT [3-(4,5-dimethylthiazol-2-yl)-2,5-diphenyltetrazolium bromide] (Sigma, St. Louis, MO, USA) microplate cell viability assay. The anticancer activity of the investigated compounds was evaluated in vitro on the basis of their ability to inhibit the proliferation of various cancer cells. Exponentially growing cells were seeded a day before the experiment into a 96-well microplate (Nunc, Roskilde, Denmark) at a density up to 6–8 × 10^3 cells/mL (depending on the cell line) and exposed to the test compounds at a wide range of concentrations for 48 h. Subsequently, various concentrations of the studied compounds (10^−7–10^−5 M) freshly prepared in DMSO (final concentration of <0.1% DMSO) and diluted with complete culture medium were added. After 48 h incubation, the cells were immediately subjected to a cell viability assay. At this time point, the number of viable cells in each well was estimated by the MTT test. Briefly, 50 µL (5 mg/mL final concentration) of MTT was added to each microplate well. This procedure was then followed by a three- to four-hour incubation at 37 °C. After incubation, MTT solution was replaced with 100 µL DMSO/well, which solubilized the formazan crystals formed by the dehydrogenases of metabolically active cells. Purple formazan absorbance was measured spectrophotometrically at 570 nm.

Hep 3b = assay: MTT cytotoxicity, Hep 3b; format: cell-based, human; settings: 48 h incubation, read-out: Cytotoxic effect, IC50
Description: as §1, §2

A549 = assay: MTT cytotoxicity, A549; format: cell-based, human; settings: 48 h incubation, read-out: Cytotoxic effect, IC50
Description: as §1, §2

HEC1A [1] = assay: Mitochondrial potential, JC-1 probe, HEC1A; format: cell-based, human; settings: IC50 concentration
Description: Cells (10 × 10^3/well) were seeded in black 96-well plates and grown for 24 h to reach the log phase. […] After removing the medium, the cell monolayer was washed twice with PBS solution and 50 μL of the JC-1 probe at a final concentration of 5 μM was added to the wells of the plate. The cells were incubated with the dye for 30 min in a CO2 incubator. Subsequently, the changes in the fluorescence of monomers (λex = 485 nm and λem = 525 nm) and aggregates (λex = 530 nm and λem = 590 nm) using JC-1 were monitored. The results of the tested trials were presented as the ratio of fluorescence of aggregates and JC1 monomers as a percentage of control values, which was assumed to be 100%.

HCC38 = assay: MTT cytotoxicity, HCC38; format: cell-based, human; settings: 48 h incubation, read-out: Cytotoxic effect, IC50
Description: as §1, §2

PARP1 = assay: Cleaved PARP level (ELISA), WM115 cells; format: cell-based, human; settings: WM115, 24 h at IC50 concentration
Description: Cells (1 × 10^6) were seeded in 35 mm dishes and cultured for 24 h in the appropriate medium until they reached log phase growth. […] After incubation, the medium was removed, the cells were washed with PBS solution and trypsinized. The harvested cell pellet was lysed in RIPA buffer (50 mM Tris-HCL, pH 8.0, with 150 mM sodium chloride, 1.0% Igepal CA-630 (NP-40), 0.5% sodium deoxychlorate, and 0.1% sodium dodecyl sulfate) with protease inhibitor (phenylmethylsulfonyl fluoride) (Sigma-Aldrich Sigma, St. Louis, MO, USA). The level of cleaved PARP was estimated using the PARP Cleaved [214/215] ELISA kit (Invitrogen, Waltham, MA, USA) according to the protocol described in the manufacturer’s instructions.

HT29 = assay: MTT cytotoxicity, HT29; format: cell-based, human; settings: 48 h incubation, read-out: Cytotoxic effect, IC50
Description: as §1, §2

WM115 = assay: MTT cytotoxicity, WM115; format: cell-based, human; settings: 48 h incubation, read-out: Cytotoxic effect, IC50
Description: as §1, §2

HL60 = assay: MTT cytotoxicity, HL60; format: cell-based, human; settings: 48 h incubation, read-out: Cytotoxic effect, IC50
Description: as §1, §2

LoVo = assay: MTT cytotoxicity, LoVo; format: cell-based, human; settings: 48 h incubation, read-out: Cytotoxic effect, IC50
Description: as §1, §2

NALM6 = assay: MTT cytotoxicity, NALM6; format: cell-based, human; settings: 48 h incubation, read-out: Cytotoxic effect, IC50
Description: as §1, §2

SW620 = assay: MTT cytotoxicity, SW620; format: cell-based, human; settings: 48 h incubation, read-out: Cytotoxic effect, IC50
Description: as §1, §2

HEC1A [2] = assay: MTT cytotoxicity, HEC1A; format: cell-based, human; settings: 48 h incubation, read-out: Cytotoxic effect, IC50
Description: as §1, §2

[3] = test system: human microvascular endothelial cell line HMEC1; assay: MTT cytotoxicity, normal endothelial cells HMEC1; format: cell-based
Description: as §1, §2

Ishikawa = assay: MTT cytotoxicity, Ishikawa; format: cell-based, human; settings: 48 h incubation, read-out: Cytotoxic effect, IC50
Description: as §1, §2

Lipophilicity by RP-TLC = format: physicochemical; design: key: RM = log(1/Rf − 1), Rf = a/b; settings: eluent AcCN: H2O at 30–70% v/v, 22 °C
Description: All the experimental solutions of standard substances (0.1 mg/mL) were prepared by dissolving ligands (1a–1d) or ruthenium complexes (2a/3a–2d/3d) in ethanol. Commercially-available octadecyl-modified silica aluminum sheets (20 × 20 cm) were cut into 5 × 10 cm plates. The plates were manually spotted with 1.0 μL of freshly prepared solutions using automatic pipets, 5 mm from each edge. The chromatograms for all compounds (1a/2a/3a–1d/2d/3d) were developed using a horizontal developing chamber and the solvent migration distance was about 4.5 cm. The plates were visually inspected under UV light at 254 nm. Each zone was clearly marked and its distance was manually measured. The RP-TLC analyses of lipophilicity were performed at ambient temperature (22 °C). In this experiment, all measurements were performed in triplicate and the obtained results were used in further calculations. The acetonitrile and water mixtures for ligands 1a–1d and arene–ruthenium(II) complexes 2a/3a–2d/3d were used as mobile phases, with […] content increasing in the range of 30–70% v/v, at 5% intervals. Values of the chromatographic retention coefficient Rf (as shown Formula (1)) and RM (as shown Formula (2)), based on received chromatograms, were calculated and converted as follows:(1) Rf=a/b (2) RM=log1/Rf−1

Caco2 = assay: MTT cytotoxicity, Caco2; format: cell-based, human; settings: 48 h incubation, read-out: Cytotoxic effect, IC50
Description: as §1, §2

Hela = assay: MTT cytotoxicity, Hela; format: cell-based, human; settings: 48 h incubation, read-out: Cytotoxic effect, IC50
Description: as §1, §2

MCF7 = assay: MTT cytotoxicity, MCF7; format: cell-based, human; settings: 48 h incubation, read-out: Cytotoxic effect, IC50
Description: as §1, §2

HCT116 = assay: MTT cytotoxicity, HCT116; format: cell-based, human; settings: 48 h incubation, read-out: Cytotoxic effect, IC50
Description: Cytotoxicity was evaluated against fifteen adherent human cancer cell lines using the MTT test: colorectal adenocarcinoma cells Caco2 (ATCC® HTB-37™), colorectal adenocarcinoma cells HT29 (ATCC® HTB-38™), colon colorectal carcinoma HCT116 (ATCC® CCL-247™), colon adenocarcinoma COLO205 (ATCC® CCL-222™), colorectal adenocarcinoma SW620 (ATCC® CCL-227™), colorectal adenocarcinoma grade IV LoVo (ATCC® CCL-229™), hepatocellular carcinoma Hep 3b (ATCC® HB-8064™), endometrium adenocarcinoma HEC1A (ATCC® HTB-112™), Ishikawa (99040201; Sigma–Aldrich Sigma, St. Louis, MO, USA), cervical adenocarcinoma cells HeLa (ATCC® CCL-2™), lung epithelial carcinoma A549 (ATCC® CRM-CCL-185™), breast epithelial adenocarcinoma cell positive for estrogen and progesterone receptors MCF7 (ATCC® HTB-22™) and negative for expression of estrogen receptor HCC38 (ATCC® CRL-2314™), acute promyelocytic leukemia HL-60 (ATCC® CCL-240™), skin melanoma WM115 (ATCC® CRL-1676™), and 1 suspension cancer cell line: acute lymphoblastic leukemia NALM6 (purchased from the German Collection of Microorganisms and Cell Cultures). […]
The cytotoxicity was tested by a standard MTT [3-(4,5-dimethylthiazol-2-yl)-2,5-diphenyltetrazolium bromide] […] The anticancer activity of the investigated compounds was evaluated in vitro on the basis of their ability to inhibit the proliferation of various cancer cells. […]

Compound	IC50 (Colo205)	IC50 (Hep 3b)	IC50 (HT29)	IC50 (WM115)	IC50 (NALM6)	IC50 (SW620)	IC50 (HEC1A [2])	IC50 (Ishikawa)	IC50 (MCF7)	further results
CCc1cc(CC)n(C(N)=S)n1.Cc1ccc(C(C)C)cc1.F[P-](F)(F)(F)(F)F.[Cl-].[Ru+2] [3b]	91.6 ± 1.6 µM	62.4 ± 2.7 µM	123 ± 3.7 µM	51.7 ± 5.3 µM	18.5 ± 2.3 µM	78.8 ± 7.4 µM	40.1 ± 2.1 µM	121 ± 3.7 µM	132 ± 5.3 µM	IC50 (A549): 162 ± 7.9 µM; decrease in mitochondrial potential (JC-1) (HEC1A [1]): ~50%; IC50 (HCC38): > 200 µM; increase in level of PARP1 degradation compared to controls (PARP1): ~140%; IC50 (HL60): 52.9 ± 2.1 µM; IC50 (LoVo): 99.1 ± 9.4 µM; IC50 ([3]; HMEC1 normal endothelial cells, 48 h incubation, read-out: Cytotoxic effect, IC50): 135 ± 6.7 µM; IC50 for HMEC-1 higher than for cancer cells (selectivity) ([3]; HMEC-1 vs cancer cells): 3–5 times; Lipophilicity, RM (Lipophilicity by RP-TLC): 2.73; IC50 (Caco2): 82.4 ± 8.4 µM; IC50 (Hela): 101 ± 6.7 µM
Cl.[Cl-].[Cl-].[Cl-].[Ru+3].c1c[nH]cn1.c1c[nH]cn1 [NAMI-A, reference compound]	> 200 µM	> 200 µM	> 200 µM	> 200 µM	> 200 µM	> 200 µM	> 200 µM	> 200 µM	14.1 ± 1.5 µM	IC50 (HCT116): > 200 µM
